This is an account of results in patent US9415055B2, “Cyclic amines” (H. Lundbeck A/S, priority 2012, dated 2016).

Molecules are shown by their SMILES.

Sequence of P2X7 receptor (Q99572 whole entry): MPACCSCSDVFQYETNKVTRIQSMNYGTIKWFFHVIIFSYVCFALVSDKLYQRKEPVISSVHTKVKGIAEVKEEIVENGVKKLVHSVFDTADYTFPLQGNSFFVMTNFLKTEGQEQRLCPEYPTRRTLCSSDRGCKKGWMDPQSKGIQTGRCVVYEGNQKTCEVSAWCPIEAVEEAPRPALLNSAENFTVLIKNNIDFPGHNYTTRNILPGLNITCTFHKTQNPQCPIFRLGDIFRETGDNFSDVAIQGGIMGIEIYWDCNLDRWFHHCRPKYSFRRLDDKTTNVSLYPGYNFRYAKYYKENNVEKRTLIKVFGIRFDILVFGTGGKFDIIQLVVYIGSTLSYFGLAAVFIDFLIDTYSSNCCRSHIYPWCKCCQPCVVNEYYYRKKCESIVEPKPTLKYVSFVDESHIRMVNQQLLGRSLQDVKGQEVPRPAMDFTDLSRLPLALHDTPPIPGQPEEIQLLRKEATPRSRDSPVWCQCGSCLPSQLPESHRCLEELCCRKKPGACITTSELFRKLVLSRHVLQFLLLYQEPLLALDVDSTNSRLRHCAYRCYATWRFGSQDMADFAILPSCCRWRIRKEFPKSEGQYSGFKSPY

The target of the assay is P2X7 receptor (Homo sapiens (Human), UniProt Q99572). In words: P2X7 FLIPR assay: antagonism of BzATP response in 293 HEK cells stably expressing P2X7 receptor. Format: cell-based. The note with it: FLIPR fluorescence (Fluo-4), agonist BzATP, 293 HEK cells stably transfected with P2X7 receptor. The method, boiled down:
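Antagonist IC50 derived from FLIPR Tetra Fluo-4 calcium signal evoked by BzATP. Compound pre-incubation was 30 min at room temperature on P2X7-expressing HEK293 cells, seeded 24 h before in low-serum medium and dye-loaded 30 min at 37 °C then 30 min at RT.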
`Cc1ncc(C(CNC(=O)c2ccc(Cl)cc2Cl)N2CCC(Cl)CC2)cn1` (centres unmarked) [2,4-dichloro-N-(2-(4-chloropiperidin-1-yl)-2-(2-methylpyrimidin-5-yl)ethyl)benzamide]: the IC50 was found to be 280 nM.
As for `O=C(NCC(c1ccc(C(F)F)nc1)N1CCC(F)(F)CC1)c1cccc(Cl)c1Cl` (single isomer, unassigned; (-)) [(−)2,3-dichloro-N-[2-[6-(difluoromethyl)-3-pyridyl]-2-(4,4-d] [(−)2,3-dichloro-N-(2-(2-(difluoromethyl)pyridin-5-yl)-2-(4,4-difluoropiperidin-1-yl)ethyl)benzamide], the concentration for half-maximal inhibition (IC50) was determined as 4.2 nM.
The same measure for `Cc1ccc(C(CNC(=O)c2cccc(Cl)c2Cl)N2CCOCC2)cn1` (single isomer, unassigned; (+)) [(+)2,3-Dichloro-N-[2-(6-methyl-3-pyridyl)-2-morpholino-ethyl]benzamide]: 44 nM; for `Cc1ccc(C(CNC(=O)c2c(F)cccc2Cl)N2CCC(F)(F)CC2)cn1` (single isomer, unassigned; (+)) [(+)2-chloro-N-[2-(4,4-difluoro-1-piperidyl)-2-(6-methyl-3-py] [(+)2-chloro-N-(2-(4,4-difluoropiperidin-1-yl)-2-(6-methylpyridin-3-yl)ethyl)-6-fluorobenzamide]: 110 nM.
For `COc1cccc(C(=O)NCC(c2cnc(C)nc2)N2CCC(F)(F)CC2)c1Cl` (single isomer, unassigned; (-)) [(−)2-chloro-N-[2-(4,4-difluoro-1-piperidyl)-2-(2-methylpyrim] [(−)2-chloro-3-methoxy-N-(2-(4,4-difluoropiperidin-1-yl)-2-(2-methylpyrimidin-5-yl)ethyl)benzamide] the value was 11 nM; for `CCc1ncc(C(CNC(=O)c2cccc(Cl)c2Cl)N2CCC(F)(F)CC2)cn1` (single isomer, unassigned; (-)) [(−)2,3-dichloro-N-[2-(4,4-difluoro-1-piperidyl)-2-(2-ethylpy] [(−)2,3-dichloro-N-(2-(4,4-difluoropiperidin-1-yl)-2-(2-ethylpyrimidin-5-yl)ethyl)benzamide], 4.9 nM.
As to `Cc1ncc(C(CNC(=O)c2ccccc2Cl)N2CCC(F)CC2)cn1` (single isomer, unassigned; (-)) [(−)2-chloro-N-[2-(4-fluoro-1-piperidyl)-2-(2-methylpyrimidin] [(−)2-chloro-N-(2-(4-fluoropiperidin-1-yl)-2-(2-methylpyrimidin-5-yl)ethyl)benzamide], the IC50 came to 45 nM.
The same measure for `O=C(NCC(c1cnc(C(F)(F)F)nc1)N1CCC(F)CC1)c1cccc(Cl)c1Cl` (single isomer, unassigned; (+)) [(+)2,3-dichloro-N-[2-(4-fluoro-1-piperidyl)-2-[2-(trifluorom] [(+)2,3-dichloro-N-(2-(4-fluoropiperidin-1-yl)-2-(2-(trifluoromethyl)pyrimidin-5-yl)ethyl)benzamide]: 3.5 nM.
For `O=C(NCC(c1ccc(C(F)(F)F)nc1)N1CCOCC1)c1cccc(C(F)(F)F)c1Cl` (single isomer, unassigned; (-)) [(−)2-chloro-N-[2-morpholino-2-[6-(trifluoromethyl)-3-pyridyl] [(−)2-Chloro-N-[2-morpholino-2-[6-(trifluoromethyl)-3-pyridyl]ethyl]-3-(trifluoromethyl)benzamide] the value was 12 nM.
The same measure for `Cc1ccc(C(CNC(=O)c2c(F)cccc2Cl)N2CCC(F)(F)CC2)cn1` (single isomer, unassigned; (-)) [(−)2-chloro-N-[2-(4,4-difluoro-1-piperidyl)-2-(6-methyl-3-py] [(−)2-chloro-N-(2-(4,4-difluoropiperidin-1-yl)-2-(6-methylpyridin-3-yl)ethyl)-6-fluorobenzamide]: 22 nM; for `CC(C)S(=O)(=O)c1ccc(Cl)c(C(=O)NCC(c2ccc(Cl)cc2)N2CCOCC2)c1` (single isomer, unassigned; (-)) [(−)2-chloro-N-(2-(4-chlorophenyl)-2-morpholinoethyl)-5-(isopropylsulfonyl)benzamide]: 47 nM; for `Cc1ncc(C(CNC(=O)c2c(F)cccc2Cl)N2CCCC(F)(F)C2)cn1` (single isomer, unassigned; (-)) [(−)2-chloro-N-[2-(3,3-difluoro-1-piperidyl)-2-(2-methylpyrim] [(−)2-chloro-6-fluoro-N-(2-(3,3-difluoropiperidin-1-yl)-2-(2-methylpyrimidin-5-yl)ethyl)benzamide]: 280 nM.
Take `CC1(C)CCN(C(CNC(=O)c2cccc(F)c2Cl)c2cnc(C(F)(F)F)nc2)CC1` (centres unmarked) [2-chloro-N-[2-(4,4-dimethyl-1-piperidyl)-2-[2-(trifluoromethyl)pyrimidin-5-yl]ethyl]-3-fluoro-benzamide]: the concentration for half-maximal inhibition (IC50) amounted to 3600 nM.
Consider `Cc1cccc(C(=O)NCC(c2ccc(F)cc2)N2CCOCC2)c1C` (centres unmarked) [N-[2-(4-Fluoro-phenyl)-2-morpholin-4-yl-ethyl]-2,3-dimethyl-benzamide], for which the half-inhibitory concentration (IC50) was determined as 20 nM.
The same measure for `COc1ccc(C(CNC(=O)c2cccc(Cl)c2Cl)N2CCOCC2)cc1` (centres unmarked) [2,3-Dichloro-N-[2-(4-methoxy-phenyl)-2-morpholin-4-yl-ethyl]-benzamide]: 13 nM; for `Cc1cccc(C(=O)NC[C@H](c2ccc(Cl)cc2)N2CCOCC2)c1Cl` [2-Chloro-N-[(S)-2-(4-chloro-phenyl)-2-morpholin-4-yl-ethyl]-3-methyl-benzamide]: 0.53 nM; for `O=C(NC[C@H](c1ccc(Cl)cc1)N1CCOCC1)c1cccc(Cl)c1Cl` [2,3-Dichloro-N-[(S)-2-(4-chloro-phenyl)-2-morpholin-4-yl-ethyl]benzamide]: 0.62 nM.
For `O=C(NCC(c1ccc(C(F)(F)F)nc1)N1CCC(F)(F)CC1)c1cccc(Cl)c1Cl` (centres unmarked) [2,3-Dichloro-N-[2-(4,4-difluoro-1-piperidyl)-2-[6-(trifluoromethyl)-3-pyridyl]ethyl]benzamide] the value was 1.3 nM.
In the case of `Cc1ncc(C(CNC(=O)c2cccc(Cl)c2Cl)N2CCCCC2)cn1` (single isomer, unassigned; (-)) [(−)2,3-dichloro-N-[2-(2-methylpyrimidin-5-yl)-2-(1-piperidyl] [(−)2,3-dichloro-N-(2-(2-methylpyrimidin-5-yl)-2-(piperidin-1-yl)ethyl)benzamide], the half-maximal inhibitory concentration (IC50) was 21 nM.
The same measure for `COc1ccc(F)c(C(=O)NCC(c2cnc(C(F)(F)F)nc2)N2CCC(F)(F)CC2)c1Cl` (single isomer, unassigned; (+)) [(+)2-chloro-N-[2-(4,4-difluoro-1-piperidyl)-2-[2-(trifluorom] [(+)2-chloro-N-(2-(4,4-difluoropiperidin-1-yl)-2-(2-(trifluoromethyl)pyrimidin-5-yl)ethyl)-6-fluoro-3-methoxybenzamide]: 8.9 nM; for `O=C(NCC(c1ccc(C(F)(F)F)nc1)N1CCC(F)(F)CC1)c1c(F)cccc1Cl` (single isomer, unassigned; (-)) [(−)2-chloro-N-[2-(4,4-difluoro-1-piperidyl)-2-[6-(trifluorom] [(−)2-chloro-6-fluoro-N-(2-(4,4-difluoropiperidin-1-yl)-2-(trifluoromethyl)pyridin-5-yl)ethyl)benzamide]: 3 nM.
`Cn1cc(C(CNC(=O)c2cccc(Cl)c2Cl)N2CCC(F)(F)CC2)cn1` (single isomer, unassigned; (-)) [(−)2,3-dichloro-N-[2-(4,4-difluoro-1-piperidyl)-2-(1-methylp] [(−)2,3-dichloro-N-(2-(4,4-difluoropiperidin-1-yl)-2-(1-methyl-1H-pyrazol-4-yl)ethyl)benzamide] displayed a concentration for half-maximal inhibition (IC50) of 25 nM.
The molecule `O=C(NCC(c1ccc(Cl)cc1)N1CCOCC1)c1cccc(Cl)c1Cl` (centres unmarked) [2,3-Dichloro-N-[2-(4-chloro-phenyl)-2-morpholin-4-yl-ethyl]-benzamide] gave a concentration for half-maximal inhibition (IC50) of 0.6 nM.
`O=C(NCC(c1cnc(C2CC2)nc1)N1CCC(F)(F)CC1)c1c(F)cccc1Cl` (single isomer, unassigned; (+)) [(+)2-chloro-N-[2-(2-cyclopropylpyrimidin-5-yl)-2-(4,4-difluo] [(+)2-chloro-6-fluoro-N-(2-(2-cyclopropylpyrimidin-5-yl)-2-(4,4-difluoropiperidin-1-yl)ethyl)benzamide] displayed a 50% inhibitory concentration (IC50) of 9.9 nM.
For `Cc1ncc(C(CNC(=O)c2cccc(Cl)c2Cl)N2CCC(F)(F)CC2)cn1` (single isomer, unassigned; (-)) [(−)2,3-dichloro-N-[2-(4,4-difluoro-1-piperidyl)-2-(2-methylp] [(−)2,3-dichloro-N-(2-(4,4-difluoropiperidin-1-yl)-2-(2-methylpyrimidin-5-yl)ethyl)benzamide] the value was 5.8 nM; for `O=C(NCC(c1cnc(C(F)(F)F)nc1)N1CCC(F)CC1)c1cccc(Cl)c1Cl` (single isomer, unassigned; (-)) [(−)2,3-dichloro-N-[2-(4-fluoro-1-piperidyl)-2-[2-(trifluorom] [(−)2,3-dichloro-N-(2-(4-fluoropiperidin-1-yl)-2-(2-(trifluoromethyl)pyrimidin-5-yl)ethyl)benzamide], 4.7 nM.
